What was measured:
HepG2 = assay: Cytotoxicity against human HepG2 cells assessed as reduction in cell viability incubated for 24 hrs by colorimetric tetrazolium assay; assay type: functional, cell-based; conditions: HepG2, 24 h
[1] = Hemolytic activity in human erythrocytes incubated for 1 hr by microplate reader; assay type: functional, cell-based; conditions: erythrocyte
Pseudomonas aeruginosa [2] = assay: Antimicrobial activity against Pseudomonas aeruginosa PAO1 assessed as reduction in bacterial growth incubated for 48 hrs by microdilution susceptibility test; assay type: functional
Escherichia coli [3] = assay: Antimicrobial activity against Escherichia coli ATCC 25922 assessed as reduction in bacterial growth incubated for 48 hrs by microdilution susceptibility test; assay type: functional
[4] = system: Corynebacterium glutamicum; assay: Antimicrobial activity against Corynebacterium glutamicum ATCC 13032 assessed as reduction in bacterial growth incubated for 48 hrs by microdilution susceptibility test; assay type: functional
Staphylococcus aureus [5] = assay: Antimicrobial activity against Staphylococcus aureus ATCC 9144 assessed as reduction in bacterial growth incubated for 48 hrs by microdilution susceptibility test; assay type: functional
MRC5 = assay: Cytotoxicity against human MRC5 cells assessed as reduction in cell viability incubated for 24 hrs by colorimetric tetrazolium assay; assay type: functional, cell-based; conditions: MRC5, 24 h
Staphylococcus aureus [6] = assay: Antimicrobial activity against extended spectrum-lactamase-carbapenemas producing Staphylococcus aureus N315 assessed as reduction in bacterial growth incubated for 48 hrs by microdilution method; assay type: functional
Staphylococcus aureus [7] = assay: Antimicrobial activity against extended spectrum-lactamase-carbapenemas producing Staphylococcus aureus NCTC 10442 assessed as reduction in bacterial growth incubated for 48 hrs by microdilution method; assay type: functional
Staphylococcus aureus [8] = assay: Antimicrobial activity against extended spectrum-lactamase-carbapenemas producing Staphylococcus aureus strain 85/2082 assessed as reduction in bacterial growth incubated for 48 hrs by microdilution method; assay type: functional
Staphylococcus aureus [9] = assay: Antimicrobial activity against extended spectrum-lactamase-carbapenemas producing Staphylococcus aureus strain WIS assessed as reduction in bacterial growth incubated for 48 hrs by microdilution method; assay type: functional
Staphylococcus aureus [10] = assay: Antimicrobial activity against extended spectrum-lactamase-carbapenemas producing Staphylococcus aureus strain IHT 99040 assessed as reduction in bacterial growth incubated for 48 hrs by microdilution method; assay type: functional
Enterococcus faecium [11] = assay: Antimicrobial activity against extended spectrum-lactamase-carbapenemas producing Enterococcus faecium strain 50673722 assessed as reduction in bacterial growth incubated for 48 hrs by microdilution method; assay type: functional
Enterococcus faecium [12] = assay: Antimicrobial activity against extended spectrum-lactamase-carbapenemas producing Enterococcus faecium strain 50901530 assessed as reduction in bacterial growth incubated for 48 hrs by microdilution method; assay type: functional
Enterococcus faecium [13] = assay: Antimicrobial activity against extended spectrum-lactamase-carbapenemas producing Enterococcus faecium strain K36-18 assessed as reduction in bacterial growth incubated for 48 hrs by microdilution method; assay type: functional
Enterococcus faecium [14] = assay: Antimicrobial activity against extended spectrum-lactamase-carbapenemas producing Enterococcus faecium strain 50758899 assessed as reduction in bacterial growth incubated for 48 hrs by microdilution method; assay type: functional
Enterococcus faecium [15] = assay: Antimicrobial activity against extended spectrum-lactamase-carbapenemas producing Enterococcus faecium strain TUH.50-22 assessed as reduction in bacterial growth incubated for 48 hrs by microdilution method; assay type: functional
Escherichia coli [16] = assay: Antimicrobial activity against oxacillinase-producing Escherichia coli 50579417 assessed as reduction in bacterial growth incubated for 48 hrs by microdilution method; assay type: functional
Escherichia coli [17] = assay: Antimicrobial activity against verona integron-encoded metallo-beta-lactamase-29-producing Escherichia coli 50639799 assessed as reduction in bacterial growth incubated for 48 hrs by microdilution method; assay type: functional
Escherichia coli [18] = assay: Antimicrobial activity against New Delhi metallo-beta lactamase-1 producing Escherichia coli 50676002 assessed as reduction in bacterial growth incubated for 48 hrs by microdilution method; assay type: functional
Escherichia coli [19] = assay: Antimicrobial activity against New Delhi metallo-beta lactamase-1 producing Escherichia coli 50739822 assessed as reduction in bacterial growth incubated for 48 hrs by microdilution method; assay type: functional
Escherichia coli [20] = assay: Antimicrobial activity against imipenem-type carbapenemase-26 producing Escherichia coli 50857972 assessed as reduction in bacterial growth incubated for 48 hrs by microdilution method; assay type: functional
Pseudomonas aeruginosa [21] = assay: Antimicrobial activity against verona integron-encoded metallo-beta-lactamase-2 producing Pseudomonas aeruginosa K34-7 assessed as reduction in bacterial growth incubated for 48 hrs by microdilution method; assay type: functional
Pseudomonas aeruginosa [22] = assay: Antimicrobial activity against verona integron-encoded metallo-beta-lactamase-4 producing Pseudomonas aeruginosa K34-73 assessed as reduction in bacterial growth incubated for 48 hrs by microdilution method; assay type: functional
Pseudomonas aeruginosa [23] = assay: Antimicrobial activity against imipenem-type carbapenemase-14 producing Pseudomonas aeruginosa K44-24 assessed as reduction in bacterial growth incubated for 48 hrs by microdilution method; assay type: functional
Pseudomonas aeruginosa [24] = assay: Antimicrobial activity against New Delhi metallo-beta lactamase-1 producing Pseudomonas aeruginosa 50692172 assessed as reduction in bacterial growth incubated for 48 hrs by microdilution method; assay type: functional
Pseudomonas aeruginosa [25] = assay: Antimicrobial activity against verona integron-encoded metallo-beta-lactamase producing Pseudomonas aeruginosa 50692520 assessed as reduction in bacterial growth incubated for 48 hrs by microdilution method; assay type: functional
[26] = Antimicrobial activity against carbapenemase producing Klebsiella pneumoniae K47-25 assessed as reduction in bacterial growth incubated for 48 hrs by microdilution method; assay type: functional
[27] = Antimicrobial activity against New Delhi metallo-beta lactamase-1 Klebsiella pneumoniae K66-45 assessed as reduction in bacterial growth incubated for 48 hrs by microdilution method; assay type: functional
[28] = Antimicrobial activity against New Delhi metallo-beta lactamase-1 and oxacillinase -181 producing Klebsiella pneumoniae 50531633 assessed as reduction in bacterial growth incubated for 48 hrs by microdilution method; assay type: functional
[29] = Antimicrobial activity against oxacillinase-245 producing Klebsiella pneumoniae 50625602 assessed as reduction in bacterial growth incubated for 48 hrs by microdilution method; assay type: functional
[30] = Antimicrobial activity against verona integron-encoded metallo-beta-lactamase -1 producing Klebsiella pneumoniae 50667959 assessed as reduction in bacterial growth incubated for 48 hrs by microdilution method; assay type: functional
Acinetobacter baumannii [31] = assay: Antimicrobial activity against oxacillinase-58 producing Acinetobacter baumannii K12-21 assessed as reduction in bacterial growth incubated for 48 hrs by microdilution method; assay type: functional
Acinetobacter baumannii [32] = assay: Antimicrobial activity against oxacillinase-23 producing Acinetobacter baumannii K44-35 assessed as reduction in bacterial growth incubated for 48 hrs by microdilution method; assay type: functional
Acinetobacter baumannii [33] = assay: Antimicrobial activity against oxacillinase-23 producing Acinetobacter baumannii K47-42 assessed as reduction in bacterial growth incubated for 48 hrs by microdilution method; assay type: functional
Acinetobacter baumannii [34] = assay: Antimicrobial activity against oxacillinase-24 producing Acinetobacter baumannii K55-13 assessed as reduction in bacterial growth incubated for 48 hrs by microdilution method; assay type: functional
Acinetobacter baumannii [35] = assay: Antimicrobial activity against oxacillinase-23 producing Acinetobacter baumannii K63-58 assessed as reduction in bacterial growth incubated for 48 hrs by microdilution method; assay type: functional

NCCCCN1C(=O)N(CCCCN)C(=O)C(Cc2ccc3ccccc3c2)(Cc2ccc3ccccc3c2)C1=O.O=C(O)C(F)(F)F.O=C(O)C(F)(F)F
7 µg/mL: IC50 (HepG2)
16 µg/mL: MIC (Pseudomonas aeruginosa [2]) | MIC (Escherichia coli [3]) | MIC (Enterococcus faecium [11]) | MIC (Enterococcus faecium [13]) | MIC (Enterococcus faecium [14]) | MIC (Escherichia coli [16]) | MIC (Escherichia coli [17]) | MIC (Escherichia coli [18]) | MIC (Escherichia coli [19]) | MIC (Escherichia coli [20]) | MIC (Acinetobacter baumannii [35])
> 32 µg/mL: MIC (Pseudomonas aeruginosa [23]) | MIC [26] | MIC [27] | MIC [29] | MIC [30]
1 µg/mL: MIC [4]
32 µg/mL: MIC (Pseudomonas aeruginosa [21]) | MIC (Pseudomonas aeruginosa [22]) | MIC (Pseudomonas aeruginosa [24]) | MIC (Pseudomonas aeruginosa [25]) | MIC [28] | MIC (Acinetobacter baumannii [31]) | MIC (Acinetobacter baumannii [32]) | MIC (Acinetobacter baumannii [33]) | MIC (Acinetobacter baumannii [34])
250 µg/mL: EC50 [1]
8 µg/mL: MIC (Staphylococcus aureus [5]) | MIC (Staphylococcus aureus [6]) | MIC (Staphylococcus aureus [7]) | MIC (Staphylococcus aureus [8]) | MIC (Staphylococcus aureus [9]) | MIC (Staphylococcus aureus [10]) | MIC (Enterococcus faecium [12]) | MIC (Enterococcus faecium [15])
2 µg/mL: IC50 (MRC5)

NCCCCN1C(=O)N(CCCCN)C(=O)C(Cc2cc(C(F)(F)F)cc(C(F)(F)F)c2)(Cc2cc(C(F)(F)F)cc(C(F)(F)F)c2)C1=O.O=C(O)C(F)(F)F.O=C(O)C(F)(F)F
16 µg/mL: MIC (Pseudomonas aeruginosa [2]) | MIC (Escherichia coli [3]) | MIC (Staphylococcus aureus [5]) | MIC (Staphylococcus aureus [6]) | MIC (Staphylococcus aureus [7]) | MIC (Staphylococcus aureus [8]) | MIC (Staphylococcus aureus [9]) | MIC (Staphylococcus aureus [10]) | MIC (Enterococcus faecium [13]) | MIC (Enterococcus faecium [14]) | MIC (Escherichia coli [16]) | MIC (Escherichia coli [17]) | MIC (Escherichia coli [18]) | MIC (Escherichia coli [19]) | MIC (Acinetobacter baumannii [31])
177 µg/mL: EC50 [1]
4 µg/mL: MIC [4]
> 32 µg/mL: MIC [26]
8 µg/mL: MIC (Enterococcus faecium [11]) | MIC (Enterococcus faecium [12]) | MIC (Enterococcus faecium [15]) | MIC (Escherichia coli [20])
32 µg/mL: MIC (Pseudomonas aeruginosa [21]) | MIC (Pseudomonas aeruginosa [22]) | MIC (Pseudomonas aeruginosa [23]) | MIC (Pseudomonas aeruginosa [24]) | MIC (Pseudomonas aeruginosa [25]) | MIC [27] | MIC [28] | MIC [29] | MIC [30] | MIC (Acinetobacter baumannii [32]) | MIC (Acinetobacter baumannii [33]) | MIC (Acinetobacter baumannii [34]) | MIC (Acinetobacter baumannii [35])
9 µg/mL: IC50 (HepG2)
17 µg/mL: IC50 (MRC5)

NCCCCN1C(=O)N(CCCCN)C(=O)C(Cc2ccc(Br)c(Cl)c2)(Cc2ccc(Br)c(Cl)c2)C1=O.O=C(O)C(F)(F)F.O=C(O)C(F)(F)F
172 µg/mL: EC50 [1]
8 µg/mL: MIC (Staphylococcus aureus [6]) | MIC (Staphylococcus aureus [7]) | MIC (Staphylococcus aureus [9]) | MIC (Enterococcus faecium [12])
32 µg/mL: MIC (Pseudomonas aeruginosa [2]) | MIC (Pseudomonas aeruginosa [21]) | MIC (Pseudomonas aeruginosa [22]) | MIC (Pseudomonas aeruginosa [23]) | MIC (Pseudomonas aeruginosa [24]) | MIC (Pseudomonas aeruginosa [25]) | MIC [26] | MIC [27] | MIC [29] | MIC [30] | MIC (Acinetobacter baumannii [31]) | MIC (Acinetobacter baumannii [32]) | MIC (Acinetobacter baumannii [33]) | MIC (Acinetobacter baumannii [34]) | MIC (Acinetobacter baumannii [35])
16 µg/mL: MIC (Escherichia coli [3]) | MIC (Enterococcus faecium [11]) | MIC (Enterococcus faecium [13]) | MIC (Enterococcus faecium [14]) | MIC (Escherichia coli [16]) | MIC (Escherichia coli [17]) | MIC (Escherichia coli [18]) | MIC (Escherichia coli [19]) | MIC (Escherichia coli [20]) | MIC [28]
4 µg/mL: MIC (Staphylococcus aureus [5]) | MIC (Staphylococcus aureus [8]) | MIC (Staphylococcus aureus [10]) | MIC (Enterococcus faecium [15])
10 µg/mL: IC50 (MRC5)
1 µg/mL: MIC [4]
6 µg/mL: IC50 (HepG2)
